One test addresses T1, CB2 receptor (Homo sapiens, UniProt P34972).
T1 construct: gene CNR2
Description: radioligand displacement of [3H]-CP55940 on membranes. As to conditions: read-out: % inhibition at 10 μM; none at 1 μM %. Type of test: binding.

A further test concerns the target T2, 5-HT1A receptor (Homo sapiens, UniProt P08908).
T2 construct: gene HTR1A
T2 sequence (P08908 1-422): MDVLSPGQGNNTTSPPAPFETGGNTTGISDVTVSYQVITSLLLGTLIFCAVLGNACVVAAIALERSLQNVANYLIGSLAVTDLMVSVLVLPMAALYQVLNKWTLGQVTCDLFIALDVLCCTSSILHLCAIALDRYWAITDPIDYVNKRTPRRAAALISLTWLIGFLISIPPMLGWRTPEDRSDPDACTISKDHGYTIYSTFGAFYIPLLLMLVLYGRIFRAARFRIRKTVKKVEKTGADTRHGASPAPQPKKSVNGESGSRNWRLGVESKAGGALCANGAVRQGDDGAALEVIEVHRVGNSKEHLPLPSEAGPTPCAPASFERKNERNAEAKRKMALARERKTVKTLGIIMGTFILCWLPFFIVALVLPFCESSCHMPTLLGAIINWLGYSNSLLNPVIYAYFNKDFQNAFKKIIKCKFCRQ
Description: radioligand displacement of [3H]-8-hydroxy-DPAT on membranes; supported by PathHunter β-arrestin PAM assay in CHO-K1 cells with human 5-HT1A. The test is classed as binding. As to conditions: read-out: % inhibition at 10 μM; 20% at 1 μM %.

T1 sequence (P34972 whole entry): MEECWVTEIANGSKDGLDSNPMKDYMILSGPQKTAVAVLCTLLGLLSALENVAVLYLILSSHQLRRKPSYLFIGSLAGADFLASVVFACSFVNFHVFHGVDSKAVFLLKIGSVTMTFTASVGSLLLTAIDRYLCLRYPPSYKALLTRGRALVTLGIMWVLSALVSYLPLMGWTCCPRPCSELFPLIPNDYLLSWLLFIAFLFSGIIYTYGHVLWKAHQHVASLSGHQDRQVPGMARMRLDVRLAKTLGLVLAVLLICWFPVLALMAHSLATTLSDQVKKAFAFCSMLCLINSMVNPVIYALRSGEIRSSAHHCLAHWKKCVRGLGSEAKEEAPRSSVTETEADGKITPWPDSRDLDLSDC

A word on the inhibition: it is the drop in the measured response relative to a control, in per cent. Consider `CCCCCc1cc(O)c2c(c1)OC1(C)CCC3C1C2C3(C)C` (racemic) [(±)-CBL], for which the figures for the inhibition at 10 µM on CB2 receptor and on 5-HT1A receptor were 68% and 75%, respectively.
